Results on six compounds are retold here after publication PMC8657898, “Cytokinin Perception in Ancient Plants beyond Angiospermae” (International Journal of Molecular Sciences, 2021).

Like-named read-outs stand apart in the source and are kept apart here.

Experiment [1] has as its target T1, PpCHK1 (Physcomitrium patens, UniProt A0A068JFF6). Nature of the experiment: competition of unlabeled CKs with 3H-iP, tobacco leaf microsomes expressing the receptor. It is filed as binding.
The target in experiment [2] is T2, PpCHK2 (Physcomitrium patens, UniProt A0A068JG96). Described as above. It is filed as binding.
Experiment [3] deals with T3, SmCHK4a (Selaginella moellendorffii, UniProt D8R9F4). Described as above. Format: binding.
Experiment [4] addresses T4, SmCHK6 (Selaginella moellendorffii, UniProt D8SUD5). Described as above. Format: binding.
Experiment [5] has as its target PaCHK1. The description is as above. Format: binding, Picea abies.
Experiment [6] has as its target PaCHK2. The description is as above. Format: binding, Picea abies.
For another experiment, the system named is AHK3. Conditions: AHK3 from A. thaliana; cited from earlier work.
Experiment [7] addresses T1, PpCHK1. The experiment can be described thus: direct 3H-iP binding (saturation, pH dependence), tobacco leaf microsomes. Conditions: saturation curve of 3H-iP specific binding.
In experiment [8] the target is T2, PpCHK2. The experiment is described as above. Conditions: saturation curve of 3H-iP specific binding.
Experiment [9] deals with T3, SmCHK4a. The experiment is described as above. Conditions: saturation curve of 3H-iP specific binding.
Experiment [10] addresses T4, SmCHK6. The experiment is described as above. Conditions: saturation curve of 3H-iP specific binding.
In experiment [11] the target is PaCHK1. The experiment is described as above. Further details: species or system Picea abies. Conditions: saturation curve of 3H-iP specific binding.
Experiment [12] has as its target PaCHK2. The description is as above. Further details: species or system Picea abies. Conditions: saturation curve of 3H-iP specific binding.
Experiment [13] deals with PpCHK3. The experiment can be described thus: specific binding of 3H-iP, tobacco leaf microsomes. Also on record: species or system Physcomitrium patens. Conditions: PpCHK3 sensory module; expression confirmed by immunoblotting. As to the method:
(§1) We experimentally analyzed the ligand-binding properties of CHK receptors from P. patens, S. moellendorffii, and P. abies using a radiolabeled ligand method and microsomes from tobacco leaves where these receptors were transiently expressed. Tritiated isopentenyladenine served as the labeled CK. PpCHK1 and 2 proteins from P. patens were tested in a full-length version, and otherwise sensory modules (SMs) flanked by TM helices were used. PpCHK1-3 represented canonical CHK receptor group, while PpCHK4 was a representative of the related sister group. […]
(§2) Of the eight cloned receptors, we detected no CK binding for PpCHK3 and PpCHK4, although expression of these proteins was confirmed by immunoblotting against the fused GFP domain (Figure 2). […]
(§3) pK7WGF2 and pB7FWG2 constructs were transformed to Agrobacterium tumefaciens strain GV3101 and transiently expressed in Nicotiana benthamiana leaves. […] Transient expression was assessed by means of immunoblotting of microsomal membranes with antibodies against GFP (Agrisera, AS15 2987) diluted 1:5000 as described in [15]. Background binding of ^3H-iP by endogenous CK receptors of N. benthamiana was assessed in control probes using microsomes from untreated leaves (Figure 2). […]
A general note: Immunoblotting shows a protein as a band on a membrane.

Another experiment has as its system PpCHK4. The experiment can be described thus: specific binding of 3H-iP, tobacco leaf microsomes. Also on record: species or system Physcomitrium patens. Conditions: PpCHK4 sensory module; expression confirmed by immunoblotting. Here is the method: as §1, §2, §3
Experiment [14] deals with PpCHK3. Conditions: previous data; cited from earlier work.
Setting [15] is: PpCHK1, competition with 3H-iP, Cheng-Prusoff calculation method, ± SE, read-out: KD of CK-Receptor Complexes.
Setting [16] is: PpCHK1, competition with 3H-iP, alternative calculation method (Appendix A), ± SE, read-out: KD of CK-receptor complexes.
The mark [17] stands for this setting: PpCHK2, competition with 3H-iP, Cheng-Prusoff calculation method, ± SE, read-out: KD of CK-Receptor Complexes.
Setting [18] is: PpCHK2, competition with 3H-iP, alternative calculation method (Appendix A), ± SE, read-out: KD of CK-receptor complexes.
Setting [19] is: SmCHK4a, competition with 3H-iP, Cheng-Prusoff calculation method, ± SE, read-out: KD of CK-Receptor Complexes.
Where [20] appears, read: SmCHK4a, competition with 3H-iP, alternative calculation method (Appendix A), ± SE, read-out: KD of CK-receptor complexes.
[21] abbreviates: SmCHK6, competition with 3H-iP, Cheng-Prusoff calculation method, ± SE, read-out: KD of CK-Receptor Complexes.
[22] abbreviates: SmCHK6, competition with 3H-iP, alternative calculation method (Appendix A), ± SE, read-out: KD of CK-receptor complexes.
The mark [23] stands for this setting: PaCHK1, competition with 3H-iP, Cheng-Prusoff calculation method, ± SE, read-out: KD of CK-Receptor Complexes.
[24] abbreviates: PaCHK1, competition with 3H-iP, alternative calculation method (Appendix A), ± SE, read-out: KD of CK-receptor complexes.
Setting [25] is: PaCHK2, competition with 3H-iP, Cheng-Prusoff calculation method, ± SE, read-out: KD of CK-Receptor Complexes.
[26] abbreviates: PaCHK2, competition with 3H-iP, alternative calculation method (Appendix A), ± SE, read-out: KD of CK-receptor complexes.
[27] abbreviates: KD for PaCHK1 divided by KD for PaCHK2, Table 1 values.
The mark [28] stands for this setting: read-out: KD of CK-Receptor Complexes.
The mark [29] stands for this setting: read-out: KD of CK-receptor complexes.

T2 sequence (A0A068JG96 entry or part of it): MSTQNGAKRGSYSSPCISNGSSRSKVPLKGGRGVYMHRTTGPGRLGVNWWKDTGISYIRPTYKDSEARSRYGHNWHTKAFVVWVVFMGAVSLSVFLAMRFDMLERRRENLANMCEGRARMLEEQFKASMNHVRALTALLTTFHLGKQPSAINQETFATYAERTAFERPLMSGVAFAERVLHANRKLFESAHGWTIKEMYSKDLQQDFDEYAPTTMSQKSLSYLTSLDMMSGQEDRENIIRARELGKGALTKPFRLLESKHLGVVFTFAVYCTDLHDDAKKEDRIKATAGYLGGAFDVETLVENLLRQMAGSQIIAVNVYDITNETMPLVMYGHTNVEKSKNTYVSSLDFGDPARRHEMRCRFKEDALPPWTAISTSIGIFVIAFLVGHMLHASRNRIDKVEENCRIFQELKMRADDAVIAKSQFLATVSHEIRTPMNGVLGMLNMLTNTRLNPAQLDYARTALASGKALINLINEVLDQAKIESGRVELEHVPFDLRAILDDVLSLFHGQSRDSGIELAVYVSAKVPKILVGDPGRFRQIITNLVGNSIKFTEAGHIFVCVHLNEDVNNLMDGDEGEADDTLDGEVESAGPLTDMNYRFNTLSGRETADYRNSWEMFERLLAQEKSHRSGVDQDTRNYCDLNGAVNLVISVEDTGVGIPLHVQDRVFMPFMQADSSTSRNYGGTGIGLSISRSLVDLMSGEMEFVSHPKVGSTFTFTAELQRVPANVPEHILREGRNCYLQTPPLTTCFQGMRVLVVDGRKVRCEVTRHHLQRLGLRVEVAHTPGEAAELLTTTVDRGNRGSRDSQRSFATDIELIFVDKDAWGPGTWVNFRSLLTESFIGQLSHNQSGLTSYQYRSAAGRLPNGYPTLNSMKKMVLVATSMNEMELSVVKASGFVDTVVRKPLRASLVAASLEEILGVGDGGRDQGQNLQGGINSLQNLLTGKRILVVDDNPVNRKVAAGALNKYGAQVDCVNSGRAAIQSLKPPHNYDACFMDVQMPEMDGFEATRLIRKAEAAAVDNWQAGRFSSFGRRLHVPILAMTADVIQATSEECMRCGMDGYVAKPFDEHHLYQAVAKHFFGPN
T1 sequence (A0A068JFF6 entry or part of it): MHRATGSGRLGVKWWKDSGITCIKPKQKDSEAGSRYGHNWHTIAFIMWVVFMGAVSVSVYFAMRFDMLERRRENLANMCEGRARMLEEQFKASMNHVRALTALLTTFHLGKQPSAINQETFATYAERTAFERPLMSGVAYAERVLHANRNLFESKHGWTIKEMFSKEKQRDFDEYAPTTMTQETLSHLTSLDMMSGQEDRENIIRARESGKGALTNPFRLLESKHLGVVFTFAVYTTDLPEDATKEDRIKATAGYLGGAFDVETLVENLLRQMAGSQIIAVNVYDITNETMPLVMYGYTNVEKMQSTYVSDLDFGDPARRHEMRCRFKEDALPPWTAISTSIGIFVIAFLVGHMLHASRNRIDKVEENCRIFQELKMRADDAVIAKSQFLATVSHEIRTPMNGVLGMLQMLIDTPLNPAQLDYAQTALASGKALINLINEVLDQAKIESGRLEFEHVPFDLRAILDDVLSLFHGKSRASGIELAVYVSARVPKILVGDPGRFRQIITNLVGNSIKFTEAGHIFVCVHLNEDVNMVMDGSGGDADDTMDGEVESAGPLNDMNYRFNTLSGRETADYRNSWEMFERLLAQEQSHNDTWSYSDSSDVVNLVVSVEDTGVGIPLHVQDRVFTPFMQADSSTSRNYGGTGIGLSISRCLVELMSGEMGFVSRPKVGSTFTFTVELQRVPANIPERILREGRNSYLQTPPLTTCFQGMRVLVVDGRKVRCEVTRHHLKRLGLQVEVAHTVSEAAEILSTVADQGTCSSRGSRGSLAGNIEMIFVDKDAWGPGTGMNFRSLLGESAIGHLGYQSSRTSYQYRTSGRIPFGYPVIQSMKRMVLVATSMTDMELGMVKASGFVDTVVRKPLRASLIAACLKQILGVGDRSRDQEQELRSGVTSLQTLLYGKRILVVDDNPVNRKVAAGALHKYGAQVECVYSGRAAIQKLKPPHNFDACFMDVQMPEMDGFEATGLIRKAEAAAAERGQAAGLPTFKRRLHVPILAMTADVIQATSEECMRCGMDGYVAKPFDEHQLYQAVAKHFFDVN
T3 sequence (D8R9F4 entry or part of it): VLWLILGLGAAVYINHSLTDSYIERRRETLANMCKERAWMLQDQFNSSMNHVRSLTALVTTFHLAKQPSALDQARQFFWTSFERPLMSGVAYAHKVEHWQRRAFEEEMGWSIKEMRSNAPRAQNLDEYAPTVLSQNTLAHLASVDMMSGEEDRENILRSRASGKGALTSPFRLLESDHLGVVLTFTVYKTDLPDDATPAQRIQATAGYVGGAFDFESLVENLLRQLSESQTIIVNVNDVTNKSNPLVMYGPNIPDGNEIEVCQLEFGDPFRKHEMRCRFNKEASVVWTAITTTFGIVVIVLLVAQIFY
T4 sequence (D8SUD5 entry or part of it): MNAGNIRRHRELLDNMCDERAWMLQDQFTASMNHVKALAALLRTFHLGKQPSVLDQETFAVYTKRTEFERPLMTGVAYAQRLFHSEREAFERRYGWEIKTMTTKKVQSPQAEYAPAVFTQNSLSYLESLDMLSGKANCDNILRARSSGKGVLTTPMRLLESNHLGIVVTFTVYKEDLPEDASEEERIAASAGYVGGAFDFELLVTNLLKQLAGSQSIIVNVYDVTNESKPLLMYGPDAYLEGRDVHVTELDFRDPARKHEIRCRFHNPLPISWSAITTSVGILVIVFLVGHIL

For the compound `c1ccc(CNc2ncnc3nc[nH]c23)cc1` [BA, benzyladenine], the Kd – broadly, a measure of binding affinity in units of concentration – on PpCHK1 [1] (setting [15]) is 13.9 ± 0.1 nM; on PpCHK1 [1] (setting [16]), 12.8 ± 3 nM; at PpCHK2 [2] (setting [17]), 10.7 ± 0.5 nM; at PpCHK2 [2] (setting [18]) it was 14.9 ± 1.2 nM; on SmCHK4a [3] (setting [19]), 6.91 ± 0.34 nM; on SmCHK4a [3] (setting [20]), 3.2 ± 0.8 nM. Besides, the Kd is 2.28 ± 0.7 nM at SmCHK6 [4] (setting [21]); 2.9 ± 0.4 nM at SmCHK6 [4] (setting [22]); 61.9 ± 1.3 nM at PaCHK1 [5] (setting [23]); 38.4 ± 2.6 nM at PaCHK1 [5] (setting [24]); 13.5 ± 1.6 nM on PaCHK2 [6] (setting [25]); 12.3 ± 3.9 nM on PaCHK2 [6] (setting [26]).
For `CC(CO)CCNc1ncnc2nc[nH]c12` (stereo not drawn) [DZ, dihydrozeatin], the Kd on PpCHK1 [1] (setting [15]) is 507 ± 42 nM; on PpCHK1 [1] (setting [16]), 676 ± 14.4 nM; on PpCHK2 [2] (setting [17]) it was 323 ± 97 nM; on PpCHK2 [2] (setting [18]), 501 ± 74.7 nM; on PaCHK1 [5] (setting [23]), 377 ± 27 nM; on PaCHK1 [5] (setting [24]), 244 ± 25.9 nM. Moreover, the Kd at PaCHK2 [6] (setting [25]) was 22.4 ± 2.9 nM; at PaCHK2 [6] (setting [26]) it was 29.1 ± 5.4 nM. The “PaCHK1/CHK2 affinity ratio (KD1/KD2)” value in the experiment on PaCHK1 [5] (setting [27]) came to 16.8.
Take `O=C(Nc1ccccc1)Nc1cnns1` [TD, thidiazuron]: at PpCHK1 [1] (KD for PpCHK1 divided by KD for PpCHK2, Table 1 values), the “PpCHK1/CHK2 affinity ratio (KD1/KD2)” value was found to be 1.83. Besides, the dissociation constant (Kd) on PpCHK1 [1] (setting [15]) was 23.8 ± 5.4 nM; on PpCHK2 [2] (setting [17]) it was 13 ± 0.2 nM; at PpCHK2 [2] (setting [18]), 11.9 ± 2.8 nM; on PaCHK1 [5] (setting [23]) it was 6.7 ± 0.21 nM; at PaCHK1 [5] (setting [24]), 3.8 ± 0.6 nM; on PaCHK2 [6] (setting [25]) it was 64.5 ± 6.4 nM. Also, on PaCHK2 [6] (setting [26]), the Kd was 244 ± 94.8 nM. The “PaCHK1/CHK2 affinity ratio (KD1/KD2)” value in the experiment on PaCHK1 [5] (setting [27]) was determined as 0.1.
For `C/C(=C/CNc1ncnc2nc[nH]c12)CO` [cZ, cis-zeatin], the “PpCHK1/CHK2 affinity ratio (KD1/KD2)” value on PpCHK1 [1] came out at 3.01. The “cZ/tZ KD ratio” value at PpCHK1 [1] worked out at 2.79; on PpCHK2 [2] it was 1.89; at SmCHK4a [3], 2.58; with PaCHK1 [5] it was 55.4; with PaCHK2 [6], 17.0. Moreover, the Kd is 103 ± 15 nM on PpCHK1 [1] (setting [28]); 94.4 ± 26.3 nM at PpCHK1 [1] (setting [29]); 34.2 ± 9.3 nM at PpCHK2 [2] (setting [28]); 48.6 ± 9.7 nM at PpCHK2 [2] (setting [29]); 20.6 ± 2.6 nM at SmCHK4a [3] (setting [28]); 20 ± 4.9 nM at SmCHK4a [3] (setting [29]). Also, the Kd on SmCHK6 [4] (setting [28]) came to 16.6 ± 2.4 nM; at SmCHK6 [4] (setting [29]), 39 ± 5.1 nM; at PaCHK1 [5] (setting [28]) it was 419 ± 56 nM; on PaCHK1 [5] (setting [29]), 286 ± 69.4 nM; at PaCHK2 [6] (setting [28]), 17.9 ± 2.9 nM; at PaCHK2 [6] (setting [29]), 22.7 ± 3.2 nM. Further, in the experiment with PaCHK1 [5], the “PaCHK1/CHK2 affinity ratio (KD1/KD2)” value is recorded as 23.4. The “cZ/tZ KD ratio (affinity for tZ exceeds that for cZ)” value with AHK3 is 376 folds.
`CC(C)=CCNc1ncnc2nc[nH]c12` [iP, isopentenyladenine]: the Kd at PpCHK1 [1] (setting [16]) is 1.2 ± 0.3 nM; on PpCHK2 [2] (setting [18]), 0.9 nM; at SmCHK4a [3] (setting [19]) it was 1.6 ± 0.13 nM; on SmCHK4a [3] (setting [20]), 0.8 ± 0.2 nM; on SmCHK6 [4] (setting [21]), 1.7 ± 0.16 nM; on SmCHK6 [4] (setting [22]), 2.5 ± 0.8 nM. Also, the equilibrium dissociation constant (Kd) at PaCHK1 [5] (setting [23]) was 3.6 ± 0.17 nM; at PaCHK1 [5] (setting [24]), 3 ± 0.7 nM; at PaCHK2 [6] (setting [25]), 2.2 ± 0.08 nM; on PpCHK1 [7], 1.59 nM; on PpCHK2 [8], 1.45 nM; at SmCHK4a [9], 1.56 nM. Moreover, the figures for the Kd on SmCHK6 [10], on PaCHK1 [11] and at PaCHK2 [12] were 1.75 nM, 3.89 nM and 2.03 nM, respectively. For the same compound, the “binding of labeled iP” value with PpCHK3 [13] and in the experiment with PpCHK4 was “did not recognize” each time.
`C/C(=C\CNc1ncnc2[nH]cnc12)CO` [tZ, trans-zeatin]: the equilibrium dissociation constant (Kd) at PpCHK1 [1] (setting [15]) is 36.9 ± 2 nM; at PpCHK1 [1] (setting [16]) it was 24.8 ± 2.9 nM; on PpCHK2 [2] (setting [17]) it was 18.1 ± 1.5 nM; on PpCHK2 [2] (setting [18]), 12.4 ± 1.5 nM; on PaCHK1 [5] (setting [28]), 7.57 ± 0.37 nM; on PaCHK1 [5] (setting [29]) it was 5.9 ± 1 nM. Also, the Kd was found to be 1.05 ± 0.09 nM at PaCHK2 [6] (setting [28]) and 1.3 ± 0.4 nM on PaCHK2 [6] (setting [29]). Also, at PpCHK1 [1] (microsomes), the “PpCHK1/CHK2 affinity ratio (KD1/KD2)” value came out at 2.04. Besides, the “PaCHK1/CHK2 affinity ratio (KD1/KD2)” value in the experiment with PaCHK1 [5] was 7.21. Besides, in the experiment with PpCHK3 [14], the “binding of labeled tZ” value is reported as “lacks the ability to bind”.
